Columns and labels:
DDR2 = target: T1, DDR2 (Homo sapiens, UniProt Q16832); test: Biochemical kinase activity assay (Upstate IC50Profiler Express); conditions: Upstate IC50Profiler Express service
T1 construct: purchased Upstate (IC50Profiler Express service)

CSK = CSK (Homo sapiens, UniProt P41240); conditions: purified kinase; published data; cited from earlier work
MER = target: T2, MER (Homo sapiens, UniProt Q12866); test: Biochemical kinase activity assay (Invitrogen SelectScreen)
T2 sequence (Q12866 21-999): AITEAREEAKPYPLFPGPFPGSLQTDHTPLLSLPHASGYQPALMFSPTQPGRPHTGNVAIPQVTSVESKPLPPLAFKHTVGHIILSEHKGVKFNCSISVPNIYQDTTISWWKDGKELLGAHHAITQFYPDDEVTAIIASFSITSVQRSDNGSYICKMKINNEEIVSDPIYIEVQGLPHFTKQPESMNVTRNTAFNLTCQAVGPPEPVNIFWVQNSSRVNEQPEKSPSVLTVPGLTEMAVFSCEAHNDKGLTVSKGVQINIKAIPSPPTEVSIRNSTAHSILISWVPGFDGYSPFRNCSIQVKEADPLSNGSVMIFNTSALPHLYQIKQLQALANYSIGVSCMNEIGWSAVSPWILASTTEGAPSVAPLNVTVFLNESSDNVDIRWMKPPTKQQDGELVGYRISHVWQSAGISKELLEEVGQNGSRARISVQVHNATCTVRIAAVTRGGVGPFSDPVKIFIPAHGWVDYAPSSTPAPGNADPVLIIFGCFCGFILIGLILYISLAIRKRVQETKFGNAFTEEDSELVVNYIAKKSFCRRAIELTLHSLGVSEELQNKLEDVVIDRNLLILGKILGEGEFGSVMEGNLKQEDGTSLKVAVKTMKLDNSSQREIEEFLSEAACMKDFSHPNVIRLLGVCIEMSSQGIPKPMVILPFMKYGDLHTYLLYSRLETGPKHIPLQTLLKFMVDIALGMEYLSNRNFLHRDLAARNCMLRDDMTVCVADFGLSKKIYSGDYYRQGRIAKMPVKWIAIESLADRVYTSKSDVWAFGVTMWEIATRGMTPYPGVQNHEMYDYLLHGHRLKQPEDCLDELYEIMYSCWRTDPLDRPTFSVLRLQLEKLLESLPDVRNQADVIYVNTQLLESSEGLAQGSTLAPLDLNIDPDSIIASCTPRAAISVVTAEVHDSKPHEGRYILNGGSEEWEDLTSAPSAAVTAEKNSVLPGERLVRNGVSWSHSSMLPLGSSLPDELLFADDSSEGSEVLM

FER = FER (Homo sapiens, UniProt P16591); test: as above; conditions: read-out: % inhibition, FER
Chain of FER (P16591 whole entry): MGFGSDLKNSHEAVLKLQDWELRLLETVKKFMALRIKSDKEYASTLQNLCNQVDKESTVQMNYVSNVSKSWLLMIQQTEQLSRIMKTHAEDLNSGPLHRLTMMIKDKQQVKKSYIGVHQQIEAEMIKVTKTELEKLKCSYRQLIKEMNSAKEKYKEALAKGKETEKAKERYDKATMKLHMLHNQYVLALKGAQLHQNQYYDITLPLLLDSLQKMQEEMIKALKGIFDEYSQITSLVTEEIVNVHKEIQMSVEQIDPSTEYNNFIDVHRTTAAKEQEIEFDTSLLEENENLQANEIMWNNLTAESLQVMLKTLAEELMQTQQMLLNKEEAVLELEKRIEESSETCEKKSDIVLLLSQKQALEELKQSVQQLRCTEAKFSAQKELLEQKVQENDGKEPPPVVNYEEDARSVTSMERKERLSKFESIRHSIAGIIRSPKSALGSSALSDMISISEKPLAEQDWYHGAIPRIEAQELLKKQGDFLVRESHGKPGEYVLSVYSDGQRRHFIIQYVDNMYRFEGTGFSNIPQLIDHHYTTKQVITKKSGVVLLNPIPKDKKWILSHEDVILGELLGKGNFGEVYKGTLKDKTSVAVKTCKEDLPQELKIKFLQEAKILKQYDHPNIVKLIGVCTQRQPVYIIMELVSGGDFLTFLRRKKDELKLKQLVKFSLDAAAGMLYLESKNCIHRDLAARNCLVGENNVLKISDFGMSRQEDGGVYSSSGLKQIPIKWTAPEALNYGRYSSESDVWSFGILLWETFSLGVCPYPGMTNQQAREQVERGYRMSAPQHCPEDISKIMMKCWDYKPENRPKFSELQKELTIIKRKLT

GCK = GCK (Homo sapiens, UniProt Q12851); test: as above; conditions: read-out: % inhibition, GCK
Chain of GCK (Q12851 whole entry): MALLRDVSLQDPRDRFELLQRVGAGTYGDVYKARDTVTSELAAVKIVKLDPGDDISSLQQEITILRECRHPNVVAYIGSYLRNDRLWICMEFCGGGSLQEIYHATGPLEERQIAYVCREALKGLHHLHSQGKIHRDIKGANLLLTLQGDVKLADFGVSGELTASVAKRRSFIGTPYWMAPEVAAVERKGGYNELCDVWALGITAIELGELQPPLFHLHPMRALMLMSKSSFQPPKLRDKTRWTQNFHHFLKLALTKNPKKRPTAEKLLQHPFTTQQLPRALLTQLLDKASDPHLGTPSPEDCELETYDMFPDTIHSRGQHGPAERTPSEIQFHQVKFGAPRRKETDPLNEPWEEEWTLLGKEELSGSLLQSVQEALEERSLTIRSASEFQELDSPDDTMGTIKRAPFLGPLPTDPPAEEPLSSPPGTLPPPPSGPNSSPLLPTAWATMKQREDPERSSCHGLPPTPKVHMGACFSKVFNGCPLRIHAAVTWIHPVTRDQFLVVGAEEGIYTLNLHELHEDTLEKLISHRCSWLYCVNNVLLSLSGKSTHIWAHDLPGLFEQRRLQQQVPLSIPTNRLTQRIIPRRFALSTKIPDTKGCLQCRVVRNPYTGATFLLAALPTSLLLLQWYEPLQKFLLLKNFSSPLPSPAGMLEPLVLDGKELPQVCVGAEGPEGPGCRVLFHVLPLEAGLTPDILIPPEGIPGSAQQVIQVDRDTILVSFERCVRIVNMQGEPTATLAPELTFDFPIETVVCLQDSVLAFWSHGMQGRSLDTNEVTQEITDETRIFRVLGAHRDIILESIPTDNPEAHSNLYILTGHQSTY

Chain of CSK (P41240 whole entry, species assumed): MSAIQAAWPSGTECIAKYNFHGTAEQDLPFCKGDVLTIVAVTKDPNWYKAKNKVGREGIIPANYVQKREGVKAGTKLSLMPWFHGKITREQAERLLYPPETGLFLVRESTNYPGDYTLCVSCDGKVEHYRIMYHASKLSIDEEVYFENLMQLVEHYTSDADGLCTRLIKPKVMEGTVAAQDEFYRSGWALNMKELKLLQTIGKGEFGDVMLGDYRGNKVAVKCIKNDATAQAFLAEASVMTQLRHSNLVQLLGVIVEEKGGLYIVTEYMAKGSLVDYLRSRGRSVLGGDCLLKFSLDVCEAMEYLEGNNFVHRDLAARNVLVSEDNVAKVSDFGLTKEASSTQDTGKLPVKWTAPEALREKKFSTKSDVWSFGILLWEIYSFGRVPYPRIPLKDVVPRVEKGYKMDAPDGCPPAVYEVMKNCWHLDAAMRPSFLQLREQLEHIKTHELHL
T1 sequence (Q16832 22-855): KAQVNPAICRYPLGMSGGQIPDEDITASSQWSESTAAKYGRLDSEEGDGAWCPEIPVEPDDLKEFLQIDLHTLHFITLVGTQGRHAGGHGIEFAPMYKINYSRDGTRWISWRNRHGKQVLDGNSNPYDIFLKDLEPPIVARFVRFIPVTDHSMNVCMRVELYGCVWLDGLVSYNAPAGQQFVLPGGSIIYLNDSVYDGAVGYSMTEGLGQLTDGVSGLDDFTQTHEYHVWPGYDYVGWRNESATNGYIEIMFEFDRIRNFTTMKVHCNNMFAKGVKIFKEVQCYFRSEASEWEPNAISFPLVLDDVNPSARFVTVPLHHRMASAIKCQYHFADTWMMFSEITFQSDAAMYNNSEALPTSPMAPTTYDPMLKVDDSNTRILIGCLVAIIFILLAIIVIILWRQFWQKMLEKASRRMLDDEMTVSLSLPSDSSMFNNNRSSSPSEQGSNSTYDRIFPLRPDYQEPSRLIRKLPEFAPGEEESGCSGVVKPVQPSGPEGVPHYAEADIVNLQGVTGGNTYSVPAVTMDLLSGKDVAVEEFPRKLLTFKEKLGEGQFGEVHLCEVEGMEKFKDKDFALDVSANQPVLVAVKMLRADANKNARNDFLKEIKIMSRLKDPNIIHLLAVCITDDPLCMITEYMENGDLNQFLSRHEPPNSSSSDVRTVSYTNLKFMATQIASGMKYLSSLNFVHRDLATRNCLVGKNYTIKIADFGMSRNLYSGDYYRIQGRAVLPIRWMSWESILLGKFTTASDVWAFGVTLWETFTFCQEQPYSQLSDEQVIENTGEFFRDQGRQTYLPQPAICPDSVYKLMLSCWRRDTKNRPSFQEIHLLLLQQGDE

SMILES	IC50 (DDR2) [nM]	IC50 (CSK) [nM]	IC50 (MER) [nM]	inhibition at 5 µM (FER) [%]	inhibition at 5 µM (GCK) [%]	inhibition at 5 µM (MER; read-out: % inhibition, MER) [%]
COc1cc(Nc2c(C#N)cnc3cc(OCCCN4CCN(C)CC4)c(OC)cc23)c(Cl)cc1Cl [bosutinib]	4900	310	15.7	–	–	–
Cc1nc(Nc2ncc(C(=O)Nc3c(C)cccc3Cl)s2)cc(N2CCN(CCO)CC2)n1 [dasatinib]	–	–	–	36	60	40

Reference: patent US20090238808A1, “Process for the identification of novel enzyme interacting compounds” (priority 2005, published 2009)
